Laboratory results published in patent US8003734B2, “Biologically tolerated low molecular weight polyethylenimines” (priority 1997, dated 2011).

Assays:
[1] = system: pig brain capillary endothelial cells; test: In-vitro transfection of primary cultures, β-galactosidase reporter gene; format: cell-based
Experimental: The cells, which were incubated at 37° C., 95% relative atmospheric humidity and 5% CO2, were passaged twice a week, after having reached confluence, using trypsin/EGTA solution (2.5% stock solution of trypsin, 50 mM solution of ethylene glycol tetraacetic acid, PBS, pH 7.4, in a ratio of 1:1:8). Since the cells detached from the substratum in cell clusters rather than individually, a ⅛ passage was carried out in each case. Cerebral capillary endothelial cells were isolated and cultured in accordance with the method of Bowman et al. and Mischek et al. [Mischek et al., Cell. Tiss. Res. 256: 221-226 (1989)]. […]
The ECV 304 cells and 3T3 mouse fibroblasts, which were sown in 3 cm^2 Petri dishes, and the primary endothelial cells, which were sown in 6-well culture plates, were washed with PBS, pH 7.4, immediately before the experiments and provided with new, serum-supplemented medium. […] The cells were subsequently incubated for 60 hours and the luciferase or β-galactosidase activity was determined in analogy with the manufacturer's instructions. […]
The transfection efficiency of the PEI complexes was determined both with cell lines (3T3 mouse fibroblasts and the human endothelial cell line ECV304) and with primary cultures (pig brain capillary endothelial cells). […]

[2] = system: L929 mouse fibroblasts; test: Cytotoxicity study, MTT assay; format: cell-based
Experimental: L929 mouse fibroblasts were cultured under the standard conditions with which the skilled person is familiar. These cells were sown in 96-well cell culture plates at a density of 8000 cells/well and cultured for 24 h before they were used for toxicity experiments.
The toxicity of the polymers was determined on L929 mouse fibroblasts using the MTT assay in accordance with the method of Mosmann et al. [Mosmann, J. Immunol. Methods 65: 55-63 (1983)]. The polymer dilution series were prepared in DMEM containing 10% FCS and 2 mM glutamine and sterilized by filtration (0.2 μm, Schleicher & Schuell, Dassel). The pH and osmolarity of the solutions were corrected if required. After a pre-incubation of 24 h, the cells were treated with the polymer solutions and incubated for 1, 3, 12 and 24 h. The viability of the cells was quantified UV-photometrically by measuring the formazan concentration.
In a second series of experiments, the cells were generally only treated with the polymers for 1 h, after which they were washed and then cultured for a further 3, 12 and 24 h in PEI-free cell culture medium. The evaluation was carried out as described above.
The toxicity of the PEIs was determined in vitro on L929 mouse fibroblasts, which various standard organizations recommend as the standard cell culture model for determining the cytotoxicity and biocompatibility of polymers. […]

polyethylenimine [LMW PEI]
in-vitro maximum tolerable, noncytotoxic dose (MTD) of the complexes [1]: 90 μg/10 μg of DNA | cytotoxicity for fibroblasts as compared with that of HMW PEI [2]: markedly reduced
